Results from US20260314597A1, “A NOVEL APPROACH TO INTERFERE IN THE PHENYLPROPANOID BIOSYNTHETIC PATHWAY TO REDUCE PINK-RIB DISORDER IN FRESH LETTUCE” (University of Florida Research Foundation, Inc., priority 2022, published 2026).
Entries after “also recorded” stand apart in the source; their conditions may differ.

Experiments:
[1] = system: metabolites in wounded Romaine lettuce midrib; experiment: Untargeted LC-MS/MS metabolomics of melatonin-treated wounded midribs (Test 3); type: in vivo, lettuce (Romaine 'Manatee')
Protocol: For Test 1, the evaluations for pink rib development, protein quantification, and enzyme activity were conducted with Romaine and iceberg lettuce heads (36 heads per type; cultivars unknown) purchased (February 2020) upon arrival at a local grocery store in Gainesville, FL, and immediately transported to the Postharvest Horticulture Laboratory at the University of Florida in Gainesville, FL. For Test 2, metabolite extraction and detection were conducted with commercially grown, harvested, and cooled Romaine (‘Tall Guzmaine’) and iceberg (‘Chosen’) lettuce (December 2020) grown in Belle Glade, FL. For Test 3, untargeted metabolomics was performed using commercially grown, harvested, and cooled Romaine (‘Manatee’) lettuce grown in Belle Glade, FL (April 2021). To keep the lettuce head samples cool while preventing freeze damage during transport, a 3- to 6-inch layer of crushed ice was placed on the bottom of each 114-L cooler. A piece of waxed, corrugated fiberboard was placed on top of the ice prior to packing with the lettuce samples for transport the same day to the Postharvest Horticulture Laboratory in Gainesville (approximately 4 h distant).
In all tests, experimental setup began immediately upon arrival to the laboratory. 90 outer leaves were randomly selected from 18 to 22 lettuce heads that met commercial and damage-free quality standards. A midrib segment (12.5 cm) was excised from the center of each leaf and excess leaf blade tissue was trimmed parallel to the midrib. This procedure was adapted from the wounding procedure of Cantwell (2016). Each midrib was then partially sliced transversally at 1.3-cm increments along the midrib. Midribs (n=15) were immediately immersed for 30 s in one of five treatment solutions: deionized water (wounded control), L-cysteine (4.1 mM), naringenin (1.8 mM) with 20% dimethyl sulfoxide (DMSO), serotonin (2.8 or 5.7 mM) or melatonin (4.3 mM) with 0.50% DMSO. Immediately following immersion, the midribs for each treatment were patted dry using paper towels and placed (n=5) in a breathable, high-density polyethylene bag (n=3) (Narrow Profile Produce Bags [14×18 inches] Model No. S-19156, Uline®, Pleasant Prairie, WI). Unwounded control midribs were stored in the same manner. To allow for direct comparison, each cut site on each midrib was assigned an initial discoloration value on day 1 based on the coloration of the rib. Samples were stored at 5° C. with 95-98% relative humidity (RH) for 5 d, simulating commercial storage.
Unwounded, wounded, and compound-treated wounded midrib samples were collected for untargeted metabolite analysis to identify global metabolite changes in response to melatonin application and targeted metabolite analysis to quantify chlorogenic acid a major caffeoyl compound in lettuce. For both targeted and untargeted metabolite analyses, fresh samples (500-800 mg) of the midribs from each treatment (n=3) were weighed, then immediately frozen in liquid nitrogen and stored at −80° C. for subsequent metabolite extraction. Frozen samples were extracted with a 50% methanol extraction solution containing a 1:1 (v:v) of methanol with deionized water. Samples were completely submerged in a 1:1.5 (w:v) of the sample weight (mg) to extraction solution volume (μL), respectively, and incubated at 65° C. for 90 min and then centrifuged at 9660×g for 10 min (MC-12 High Speed Micro Centrifuge, Benchmark Scientific, Edison, NJ). The supernatant was transferred to a new tube and filtered with a 0.45 μm filter (Choice, Thermo Scientific, Wilmington, DE). An aliquot of 400 μL was vacuum-dried.
For untargeted metabolite analysis, vacuum-dried samples were resuspended into 100 μL of 50% methanol solution containing an internal standard umbelliferon (18 μg mL^−1) and vortexed for 1 min. After centrifugation at 13,000×g for 15 min, the solutions were transferred to sample inserts and analyzed. […]

pear flesh = settings: melatonin 0.1 mM, cited from earlier work
PAL = settings: melatonin 0.1 mM; after 2 d at 4° C.; cited from earlier work
[2] = system: nonenzymatic antioxidants, such as phenolics, flavonoids, and anthocyanins; settings: melatonin; cited from earlier work
fresh-cut fennel = settings: L-cysteine 0.5% or 41.3 mM; 6 d at 5° C.; cited from earlier work

SMILES | effect on wounding-related metabolite changes ([1]; Romaine, wounded midrib) | chlorogenic acid abundance, melatonin-treated vs wounded ([1]; Romaine, LC/MS) | number of wounding-diminished compounds increased with melatonin ([1]; of 25 diminished compounds) | number of wounding-diminished compounds remaining decreased ([1]; of 25 diminished compounds, vs untreated wounded samples) | number of wounding-accumulated compounds reduced in abundance upon melatonin ([1]; of 68 accumulated compounds) | number of wounding-accumulated compounds that maintained high abundancy ([1]; of 68 accumulated compounds) | total phenolic content (pear flesh; after 4 d at 4° C.) | inhibition of browning (pear flesh; pear flesh, 8 d at 4° C.) | PAL activity (PAL) | nonenzymatic antioxidants (phenolics, flavonoids, anthocyanins) [2] | effect on browning of fennel (fresh-cut fennel)
COc1ccc2[nH]cc(CCNC(C)=O)c2c1 [melatonin] | reduces overall metabolite changes in wounded lettuce midrib; also recorded: substantially affected wounding-related metabolite changes | remained similar | 16 compounds | 9 compounds | 64 compounds | four | higher | no inhibition of browning | higher | enhances nonenzymatic antioxidants | 
N[C@@H](CS)C(=O)O [L-cysteine] |  |  |  |  |  |  |  |  |  |  | no effect; also recorded: ineffective
